Assay results as given in ChEMBL document CHEMBL1201862, “PubChem BioAssay data set” (2004).
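Values below derive from 48-hour exposures of cells grown in 96-well plates, with endpoints linearly interpolated between the two concentrations bracketing the appropriate inhibition level. GI50 is the concentration that inhibits growth by half.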 Activity calls are given as the source filed them. Rule as the data show it: active = GI50 up to about 1.1 µM and inactive = higher.

Experiments:
Assay in all cases: NCI anticancer screen, dose series, 48 h
[1] = system: HCT-15
[2] = system: HCC 2998
[3] = system: Malme-3M
[4] = system: ACHN
[5] = system: SK-MEL-2
[6] = system: NCI-H522
[7] = system: SN12C
[8] = system: CCRF-CEM
[9] = system: OVCAR-5
[10] = system: SW-620
[11] = system: EKVX
[12] = system: UO-31
[13] = system: TK-10
[14] = system: M14
[15] = system: HCT-116
[16] = system: OVCAR-8
[17] = system: U-251
[18] = system: SR

SMILES	GI50 [1] [µM]	GI50 [2]	GI50 [3]	GI50 [4]	GI50 [5]	GI50 [6]	GI50 [7]	GI50 [8]	GI50 [9]	GI50 [10]	GI50 [11]	GI50 [12]	GI50 [13]	GI50 [14]	GI50 [15]	GI50 [16]	GI50 [17]	GI50 [18]
CC1=C(C(=O)CC(=O)C(=O)Nc2ccc(Cl)cc2C)Sc2ccccc2N1	> 100	> 100 µM (inactive)	> 100 µM (inactive)	> 100 µM (inactive)	> 100 µM (inactive)	> 84.7 µM (inactive)	> 100 µM (inactive)	> 100 µM (inactive)	> 100 µM (inactive)	> 100 µM (inactive)	> 100 µM (inactive)	> 100 µM (inactive)	> 100 µM (inactive)	> 100 µM (inactive)	> 100 µM (inactive)	> 100 µM (inactive)	> 100 µM (inactive)	
O=C1c2ccccc2C(=O)N1CC#CCO	> 100			> 100 µM (inactive)	> 100 µM (inactive)	> 100 µM (inactive)	> 100 µM (inactive)	> 100 µM (inactive)	> 100 µM (inactive)	> 100 µM (inactive)	> 100 µM (inactive)	> 100 µM (inactive)	> 100 µM (inactive)	> 100 µM (inactive)	> 100 µM (inactive)	> 100 µM (inactive)	> 100 µM (inactive)	> 100 µM (inactive)
O=C1OC2C(O)COC2(O)C1(O)Cc1c[nH]c2ccccc12 (stereo unspecified)	> 100		> 100 µM (inactive)		> 100 µM (inactive)	> 100 µM (inactive)	> 100 µM (inactive)	> 100 µM (inactive)	> 100 µM (inactive)	> 100 µM (inactive)	> 100 µM (inactive)	> 100 µM (inactive)	> 100 µM (inactive)	> 100 µM (inactive)	> 100 µM (inactive)	> 100 µM (inactive)	> 100 µM (inactive)	> 100 µM (inactive)
CC(C)(C)/N=C\N(C=C(c1ccccc1)c1ccccc1)C1CCCCC1	28.5		17.1 µM (inactive)	36.4 µM (inactive)	60.8 µM (inactive)		43.4 µM (inactive)	34.8 µM (inactive)	35.1 µM (inactive)	36.3 µM (inactive)	93.1 µM (inactive)		78.3 µM (inactive)		23.4 µM (inactive)	91.8 µM (inactive)	32.1 µM (inactive)	18 µM (inactive)
CCN(CC)CCC(=O)NC1c2ccccc2Oc2c(C)cccc21 (stereo unspecified)	> 100	> 100 µM (inactive)		> 100 µM (inactive)			> 100 µM (inactive)	> 100 µM (inactive)	> 100 µM (inactive)	> 100 µM (inactive)	> 100 µM (inactive)	63.7 µM (inactive)	> 100 µM (inactive)	> 100 µM (inactive)	> 100 µM (inactive)	> 100 µM (inactive)	> 100 µM (inactive)	> 100 µM (inactive)
COc1ccc2c(c1)[n+]([O-])c(C(=O)C/C(=N/NC(=O)c1ccccc1O)C(=O)Nc1ccc(Cl)c(C(F)(F)F)c1)c(C)[n+]2[O-]	43.7	32.7 µM (inactive)	49.7 µM (inactive)	68.9 µM (inactive)	> 100 µM (inactive)	39.6 µM (inactive)	47.2 µM (inactive)	36.4 µM (inactive)	45.4 µM (inactive)	62.1 µM (inactive)	48.9 µM (inactive)	20.7 µM (inactive)	50.5 µM (inactive)	51.4 µM (inactive)	48.2 µM (inactive)	43.8 µM (inactive)	> 100 µM (inactive)	
Cn1cnc([N+](=O)[O-])c1Sc1nc2ccccc2[nH]1	11.1	12.3 µM (inactive)	16.3 µM (inactive)	22.8 µM (inactive)			14.7 µM (inactive)	17.9 µM (inactive)	52.8 µM (inactive)	> 10 µM (inactive)	14.1 µM (inactive)	19.9 µM (inactive)	19.3 µM (inactive)	24.2 µM (inactive)	14.8 µM (inactive)	11.7 µM (inactive)	20 µM (inactive)	10 µM (inactive)
